For experiment [1], the target named is T1, ZDHHC5 (Homo sapiens, UniProt Q9C0B5).
T1 construct: protein fragment 60-148aa expressed using Yeast
Put plainly: microscale thermophoresis (MST) with labeled ZDHHC5 fragment. The class given is binding.

The target of experiment [2] is T2, ZDHHC5 protein fragment (60-148aa), ZDHHC5's substrate binding domain (UniProt Q9C0B5 60-148, RED-NHS 2nd Generation dye label where it was the labeled partner (assay without Lomitapide); unlabeled in the assay with Lomitapide).
T2 construct: also called ZDHHC5 substrate domain; source: expressed using Yeast; labeled and purified with the labeling kit
Put plainly: MST; 20 nM labeled ZDHHC5 mixed with unlabeled SSTR5 in 16 serial concentrations (maximum 200 nM), RT, 1.05*PBS; Monolith NT.115, LED 20%, medium MST power. The conditions noted are these: both partners purified.

Experiment [3] has as its target T2, ZDHHC5 protein fragment (60-148aa), …. In words: MST; in the presence of 25 uM Lomitapide: 20 nM labeled SSTR5 and 25 uM Lomitapide mixed with unlabeled ZDHHC5 in 16 serial concentrations (maximum 200 nM), RT, 1.05*PBS. Conditions: both partners purified.

Ends that are not written are not given here.

T1 sequence (Q9C0B5 60-148): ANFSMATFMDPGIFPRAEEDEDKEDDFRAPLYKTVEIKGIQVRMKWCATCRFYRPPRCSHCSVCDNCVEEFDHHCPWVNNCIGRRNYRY
T2 sequence (Q9C0B5 60-148): as above

On to `O=C(NC1CCN(CCCCC2(C(=O)NCC(F)(F)F)c3ccccc3-c3ccccc32)CC1)c1ccccc1-c1ccc(C(F)(F)F)cc1` [Lomitapide], for which, in experiment [1], the Kd worked out at 509 nM.
For the molecule `CCCCCCCCCCCCCCCC(=O)O` [palmitic acid], in experiment [1], the affinity, expressed as Kd, was 88 nM.

B1: SSTR5 protein fragment (cytoplasmic tail 307-364aa) (domain or fragment, UniProt P35346 307-364, looked up)
chain: LSDNFRQSFQKVLCLRKGSGAKDADATEPRPDRIRQQQEATPPAHRAAANGLMQTSKL
modifications: also: RED-NHS dye label in the labeled-partner assay, site not given here
notes: also called SSTR5 (307-362 aa); SSTR5 cytoplasmic tail
In the case of B1, the values for the Kd in experiment [2] and in experiment [3] were 2.06 nM and 22.5 nM, respectively.

For the origin of these results see article PMC9922277, “Repositioning Lomitapide to block ZDHHC5-dependant palmitoylation on SSTR5 leads to anti-proliferation effect in preclinical pancreatic cancer models” (Cell Death Discovery, 2023).
